Activity calls are given as the source filed them. The calls are words filed in the database; no cut-off is given here.
Tests used:
[1] = Antiviral activity against influenza A virus A/WSN/33 (H1N1) infected in MDCK cells assessed as reduction in cytopathic effect at 100 uM after 48 hrs by plaque assay; assay type: functional, Influenza A virus (A/WSN/1933(H1N1))
[2] = Cytotoxicity against MDCK cells assessed as cell growth after 40 hrs by CellTiter-Glo assay; assay type: cell-based, Canis lupus familiaris; conditions: dog
[3] = Antiviral activity against influenza A virus A/WSN/33 (H1N1) infected in MDCK cells assessed as reduction in cytopathic effect after 48 hrs by plaque assay; assay type: functional, cell-based, Influenza A virus (A/WSN/1933(H1N1))
[4] = target: Hemagglutinin (Influenza A virus) (UniProt B4URE7); assay: Inhibition of influenza A virus A/WSN/33 (H1N1) Hemagglutinin 1 binding to sialic acid receptor assessed as response unit at 1.25 ug/ml by surface plasmon resonance assay; conditions: Influenza A virus (A/WSN/1933(H1N1))
Hemagglutinin = Hemagglutinin (Influenza A virus, UniProt B4URE7); assay: Binding affinity to influenza A virus A/WSN/33 (H1N1) Hemagglutinin by surface Plasmon resonance assay; design: species or system Influenza A virus (A/WSN/1933(H1N1))
[5] = target: Hemagglutinin (Influenza A virus) (UniProt B4URE7); assay: Inhibition of influenza A virus A/WSN/33 (H1N1) Hemagglutinin 1 binding to sialic acid receptor assessed as response unit at 0.625 ug/ml by surface plasmon resonance assay; conditions: Influenza A virus (A/WSN/1933(H1N1))
[6] = target: Hemagglutinin (Influenza A virus) (UniProt B4URE7); assay: Inhibition of influenza A virus A/WSN/33 (H1N1) Hemagglutinin 1 binding to sialic acid receptor assessed as response unit at 2.5 ug/ml by surface plasmon resonance assay; conditions: Influenza A virus (A/WSN/1933(H1N1))
[7] = target: Hemagglutinin (Influenza A virus) (UniProt B4URE7); assay: Inhibition of influenza A virus A/WSN/33 (H1N1) Hemagglutinin 1 binding to sialic acid receptor assessed as response unit at 5 ug/ml by surface plasmon resonance assay; conditions: Influenza A virus (A/WSN/1933(H1N1))
[8] = tested on: Influenza A virus (A/WSN/1933(H1N1)); assay: Inhibition of influenza A virus A/WSN/33 (H1N1) Hemagglutinin 1 binding to sialic acid receptor assessed as response unit at 10 ug/ml by surface plasmon resonance assay
[9] = Binding affinity to influenza A virus A/WSN/33 (H1N1) Hemagglutinin 1 binding to sialic acid receptor by surface plasmon resonance assay; design: species or system Influenza A virus (A/WSN/1933(H1N1))
[10] = tested on: Influenza A virus (A/WSN/1933(H1N1)); assay: Inhibition of influenza A virus A/WSN/33 (H1N1) Hemagglutinin 1 binding to sialic acid receptor assessed as response unit at 20 ug/ml by surface plasmon resonance assay
MDCK [11] = assay: (§1) Antiviral activity against influenza A virus A/WSN/33 (H1N1) infected in MDCK cells assessed as inhibition of plaque formation after 3 days at 37 degC; assay type: functional, cell-based; conditions: Influenza A virus (A/WSN/1933(H1N1))
MDCK [12] = assay: Antiviral activity against influenza A virus A/WSN/33 (H1N1) infected in MDCK cells assessed as nucleoprotein level in infected cells at […] progeny virion release step at 100 uM by Time-of-addition experiment; assay type: functional, cell-based; conditions: Influenza A virus (A/WSN/1933(H1N1))
MDCK [13] = assay: Antiviral activity against influenza A virus A/WSN/33 (H1N1) infected in MDCK cells assessed as nucleoprotein level in infected cells at 2 to 8 hrs viral genome replication and translation step at 100 uM by Time-of-addition experiment; assay type: functional, cell-based; conditions: Influenza A virus (A/WSN/1933(H1N1))
MDCK [14] = assay: Antiviral activity against influenza A virus A/WSN/33 (H1N1) infected in MDCK cells assessed as nucleoprotein level in infected cells at 0 to 2 hrs virus entry step at 100 uM by Time-of-addition experiment; assay type: functional, cell-based; conditions: Influenza A virus (A/WSN/1933(H1N1))
[15] = target: Hemagglutinin (Influenza A virus) (UniProt B4URE7); assay: Inhibition of influenza A virus A/WSN/33 (H1N1) Hemagglutinin transfected in Human HeLa cells assessed as polykaryon formation at 100 uM after 15 mins by microscopy; assay type: cell-based; conditions: Influenza A virus (A/WSN/1933(H1N1))
MDCK [16] = assay: Antiviral activity against influenza A virus A/WSN/33 (H1N1) infected in MDCK cells assessed as inhibition of plaque formation for 1 hr at 4 degC; assay type: functional, cell-based; conditions: Influenza A virus (A/WSN/1933(H1N1))
[17] = tested on: Influenza A virus (A/WSN/1933(H1N1)); assay: Inhibition of influenza A virus A/WSN/33 (H1N1) […] binding to sialic acid receptor by surface Plasmon resonance assay
[18] = tested on: Influenza A virus (A/WSN/1933(H1N1)); assay: Inhibition of influenza A virus A/WSN/33 (H1N1)-induced aggregation of chicken erythrocytes after 30 mins by Hemagglutination inhibition assay; assay type: functional
[19] = as §1; assay type: functional, cell-based, Influenza A virus (A/WSN/1933(H1N1)); conditions: 72 h

C=CC(C)(C)c1[nH]c2ccccc2c1/C=C1\NC(=O)C(=O)NC1=O
inhibition at 100 µM [1]: 6.69% | CC50 at 40 h [2]: > 200 µM

C[C@@H]1NC(=O)[C@H](Cc2c[nH]c3ccccc23)NC1=O
inhibition at 100 µM [1]: 2.31% | CC50 at 40 h [2]: > 200 µM

C=CC(C)(C)c1[nH]c2ccc(CC=C(C)C)cc2c1/C=C1\NC(=O)[C@H](C)NC1=O [ISOECHINULIN A]
inhibition at 100 µM [1]: 77.6% | CC50 at 40 h [2]: > 200 µM | IC50 [3]: 42.7 µM

C=CC(C)(C)c1[nH]c2ccc(C[C@H](O)C(C)(C)OC)cc2c1/C=C1\NC(=O)[C@H](C)NC1=O
inhibition at 100 µM [1]: 15.2% | CC50 at 40 h [2]: > 200 µM

NC(=O)c1ncn([C@@H]2O[C@H](CO)[C@@H](O)[C@H]2O)n1 [RIBAVIRIN]
CC50 at 40 h [2]: > 200 µM

C=CC(C)(C)c1[nH]c2ccccc2c1C[C@@H]1NC(=O)[C@H](C)NC1=O [PREECHINULIN]
inhibition at 100 µM [1]: 14.9% | CC50 at 40 h [2]: > 200 µM

C=CC(C)(C)c1[nH]c2ccccc2c1/C=C1\NC(=O)[C@H](CO)NC1=O [CRISTATUMIN A]
inhibition at 100 µM [1]: 20.6% | CC50 at 40 h [2]: > 200 µM

C=CC(C)(C)c1[nH]c2ccccc2c1/C=C1\NC(=O)[C@H](C)NC1=O [NEOECHINULIN A]
Activity [4]: 4.5 | Kd (Hemagglutinin): 98 µM | Activity [5]: 1 | Activity [6]: 12.3 | Activity [7]: 26.5

C=CC(C)(C)c1[nH]c2ccc(C[C@H](OC(C)=O)C(C)(C)O)cc2c1/C=C1\NC(=O)[C@H](C)NC1=O
inhibition at 100 µM [1]: 2.5% | CC50 at 40 h [2]: > 200 µM

C=CC(C)(C)c1[nH]c2c(CC=C(C)C)cccc2c1/C=c1\[nH]c(=O)c(=C)[nH]c1=O
inhibition at 100 µM [1]: 100% | CC50 at 40 h [2]: > 200 µM | IC50 [3]: 51.4 µM

COc1cc(/C=C/C(=O)CC(=O)/C=C/c2ccc(O)c(OC)c2)ccc1O [CURCUMIN]
Activity [4]: 2.7 | Activity [8]: 36.4 | Kd [9]: 507 µM | Activity [5]: 0.8 | Activity [6]: 6.8 | Activity [7]: 16.1 | Activity [10]: 78.8

C=CC(C)(C)c1[nH]c2c(CC=C(C)C)cc(CC=C(C)C)cc2c1C[C@@H]1NC(=O)[C@H](C)NC1=O [ECHINULIN]
inhibition at 100 µM [1]: 13% | CC50 at 40 h [2]: > 200 µM

C=CC(C)(C)c1[nH]c2ccccc2c1/C=C1\NC(=O)[C@@](CO)(OC)NC1=O
inhibition at 100 µM [1]: 14.3% | CC50 at 40 h [2]: > 200 µM

CCOC(=O)c1c(CSc2ccccc2)n(C)c2cc(Br)c(O)c(CN(C)C)c12 [UMIFENOVIR]
Activity [4]: 1.2 | Activity [8]: 48.7 | Kd [9]: 0.081 µM | Activity [5]: -1.8 | Activity [6]: 7.5 | Activity [7]: 20.7 | Activity [10]: 102

C=CC(C)(C)c1[nH]c2ccccc2c1C(OC)[C@@H]1NC(=O)[C@H](C)NC1=O (stereo not given in full)
inhibition at 100 µM [1]: 18.3% | CC50 at 40 h [2]: > 200 µM

CC(C)=CCn1cc(C[C@@H]2NC(=O)[C@H](C)NC2=O)c2ccccc21
inhibition at 100 µM [1]: 25.4% | CC50 at 40 h [2]: > 200 µM

C=CC(C)(C)c1[nH]c2c(C[C@H](O)C(C)(C)O)cccc2c1/C=C1\NC(=O)[C@H](C)NC1=O
inhibition at 100 µM [1]: 15.1% | CC50 at 40 h [2]: > 200 µM

C=CC(C)(C)c1[nH]c2ccc(C[C@H](O)C(C)(C)OC)cc2c1/C=c1\[nH]c(=O)c(=C)[nH]c1=O
inhibition at 100 µM [1]: 5% | CC50 at 40 h [2]: > 200 µM

C=CC(C)(C)c1[nH]c2ccc(C[C@H](O)C(C)(C)OC)cc2c1C[C@@H]1NC(=O)[C@H](C)NC1=O
inhibition at 100 µM [1]: 5.69% | CC50 at 40 h [2]: > 200 µM

C=CC(C)(C)n1cc(C[C@@H]2NC(=O)[C@H](C)NC2=O)c2ccccc21
inhibition at 100 µM [1]: 17.9% | CC50 at 40 h [2]: > 200 µM

C=CC(C)(C)c1[nH]c2ccccc2c1C(O)[C@@H]1NC(=O)[C@H](C)NC1=O (stereo not given in full)
inhibition at 100 µM [1]: 3.38% | CC50 at 40 h [2]: > 200 µM

C=CC(C)(C)c1[nH]c2ccccc2c1/C=C1\NC(=O)[C@@](C)(OC)NC1=O
inhibition at 100 µM [1]: 82.4% | CC50 at 40 h [2]: > 200 µM | IC50 [3]: 68.8 µM

C=CC(C)(C)c1[nH]c2ccc(C[C@H](OC(C)=O)C(C)(C)O)cc2c1C[C@@H]1NC(=O)[C@H](C)NC1=O
inhibition at 100 µM [1]: 3.48% | CC50 at 40 h [2]: > 200 µM

C=CC(C)(C)c1[nH]c2ccc(C[C@H](O)C(C)(C)O)cc2c1/C=C1\NC(=O)C(=O)NC1=O
inhibition at 100 µM [1]: 6.45% | CC50 at 40 h [2]: > 200 µM

C=CC(C)(C)c1[nH]c2ccccc2c1C[C@@H]1NC(=O)[C@H](CO)NC1=O
inhibition at 100 µM [1]: 13% | CC50 at 40 h [2]: > 200 µM

C=CC(C)(C)c1[nH]c2ccccc2c1/C=c1\[nH]c(=O)c(=C)[nH]c1=O [NEOECHINULIN B]
inhibition (MDCK [11]): Dose-dependent effect | inhibition (MDCK [12]): inactive | Activity [4]: -4 | inhibition (MDCK [13]): inactive | Activity [8]: 27.7 | Kd [9]: 451 µM | Kd (Hemagglutinin): 32 µM | Activity (MDCK [14]): Active | Activity [15]: inactive | Activity [5]: -3.9 | inhibition at 100 µM [1]: 70.5% | inhibition (MDCK [16]): Dose-dependent effect | CC50 at 40 h [2]: > 200 µM | Activity [17]: Active | Activity [6]: 0.8 | Activity [7]: 8.9 | IC50 [3]: 27.4 µM | Activity [10]: 66.9 | inhibition [18]: Dose-dependent effect

CCOC(=O)C1=C[C@@H](OC(CC)CC)[C@H](NC(C)=O)[C@@H](N)C1 [OSELTAMIVIR]
IC50 [19]: 15 µM | CC50 at 40 h [2]: > 200 µM | IC50 [3]: 46.5 µM

C=CC(C)(C)c1[nH]c2c(C[C@H](O)C(C)(C)OC)cccc2c1/C=C1\NC(=O)[C@H](C)NC1=O
inhibition at 100 µM [1]: 15.6% | CC50 at 40 h [2]: > 200 µM

NC12CC3CC(CC(C3)C1)C2 [AMANTADINE]
CC50 at 40 h [2]: > 200 µM

Reference: ChEMBL document CHEMBL3414446, “Neoechinulin B and its analogues as potential entry inhibitors of influenza viruses, targeting viral hemagglutinin” (Eur J Med Chem, 2015)
